Experimental data reported in patent US7408065B2, “P2X7 receptor antagonists and their use” (AstraZeneca AB, priority 2003, dated 2008).
Where a name gives a salt, the structure may show the parent alone. Read-outs that look alike come from different tables or passages of the source.

Assays:
P2X7 receptor = biological target: T1, P2X7 receptor (Homo sapiens, UniProt Q99572); assay: P2X7 receptor antagonist activity: bbATP-induced ethidium bromide fluorescence in THP-1 cells; format: cell-based
T1 construct: 200 μl of a suspension of THP-1 cells; endogenous in cells; host or cells: THP-1 cells
T1 sequence (Q99572 1-595): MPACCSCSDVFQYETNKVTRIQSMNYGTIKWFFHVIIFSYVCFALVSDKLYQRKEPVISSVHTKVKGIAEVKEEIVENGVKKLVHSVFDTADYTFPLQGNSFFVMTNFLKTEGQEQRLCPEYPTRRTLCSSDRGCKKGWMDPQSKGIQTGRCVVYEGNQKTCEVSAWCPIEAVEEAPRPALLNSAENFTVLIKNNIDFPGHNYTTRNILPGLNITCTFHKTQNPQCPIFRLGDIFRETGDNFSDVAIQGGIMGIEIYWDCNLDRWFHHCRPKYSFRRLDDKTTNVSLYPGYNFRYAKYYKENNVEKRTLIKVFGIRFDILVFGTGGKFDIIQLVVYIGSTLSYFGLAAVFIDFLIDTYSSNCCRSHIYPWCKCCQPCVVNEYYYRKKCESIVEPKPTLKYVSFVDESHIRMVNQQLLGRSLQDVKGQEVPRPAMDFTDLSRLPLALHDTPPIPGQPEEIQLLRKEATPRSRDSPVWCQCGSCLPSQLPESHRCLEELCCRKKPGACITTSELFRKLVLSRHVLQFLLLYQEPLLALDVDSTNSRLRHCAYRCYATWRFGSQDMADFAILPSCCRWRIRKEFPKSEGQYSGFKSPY
Procedure: Consequently, when the receptor is activated using bbATP in the presence of ethidium bromide (a fluorescent DNA probe), an increase in the fluorescence of intracellular DNA-bound ethidium bromide is observed. The increase in fluorescence can be used as a measure of P2X7 receptor activation and therefore to quantify the effect of a compound on the P2X7 receptor.
In this manner, each of the title compounds of the Examples was tested for antagonist activity at the P2X7 receptor. Thus, the test was performed in 96-well flat bottomed microtitre plates, the wells being filled with 250 μl of test solution comprising 200 μl of a suspension of THP-1 cells (2.5×10^6 cells/ml) containing 10^−4M ethidium bromide, 25 μl of a high potassium buffer solution containing 10^−5M bbATP, and 25 μl of the high potassium buffer solution containing 3×10^−5M test compound. The plate was covered with a plastics sheet and incubated at 37° C. for one hour. […] For the purposes of comparison, bbATP (a P2X7 receptor agonist) and pyridoxal 5-phosphate (a P2X7 receptor antagonist) were used separately in the test as controls.

[1] = THP-1 cells, negative logarithm of concentration reducing bbATP agonist activity by 50%, ethidium bromide fluorescence, 37° C., one hour, read-out: pIC50 (converted)

| Compound | IC50 (P2X7 receptor; [1]) [nM] | melting point [°C] | IC50 (P2X7 receptor) [nM] |
| --- | --- | --- | --- |
| O=C(CC1CCCCC1)Nc1c(Cl)ccc2nc(NCCCO)ccc12 [Example 5, N-[6-Chloro-2-[(3-hydroxypropyl)amino]-5-quinolinyl]-cyclohexaneacetamide, Hydrochloride] | 126 |  |  |
| O=C(CC1CCCCC1)Nc1c(Cl)ccc2nc(NCCNCCO)ccc12 [Example 17, N-[6-Chloro-2-[[2-[(2-hydroxyethyl)amino]ethyl]amino]-5-quinolinyl]-cyclohexaneacetamide, Dihydrochloride] | 25.1 |  |  |
| CC1CCC(CC(=O)Nc2cccc3ncccc23)CC1 (stereo not drawn) [Example 20, 4-Methyl-N-5-quinolinyl-cyclohexaneacetamide] | 126 |  |  |
| CS(=O)(=O)NC(=O)NCCCc1ccc2c(NC(=O)CC3CCCCC3)c(Cl)ccc2n1 [Example 24, N-[6-Chloro-2-[3-[[[(methylsulfonyl)amino]carbonyl]amino]propyl]-5-quinolinyl]-cyclohexaneacetamide] |  | 151 to 152 | 501 |
| O=C(CC1CCCCC1)Nc1c(Cl)ccc2nc(N3CC[C@@H](O)C3)ccc12 [Example 28, N-[6-Chloro-2-[(3R)-3-hydroxy-1-pyrrolidinyl]-5-quinolinyl]-cyclohexaneacetamide] | 39.8 | 226 to 227 |  |
| CN[C@@H]1CCN(c2ccc3c(NC(=O)CC4CCCCC4)c(Cl)ccc3n2)C1 [Example 33, N-[6-Chloro-2-[(3R)-3-(methylamino)-1-pyrrolidinyl]-5-quinolinyl]-cyclohexaneacetamide] | 25.1 | 169 |  |
| O=C(CC1CCCCC1)Nc1c(Cl)ccc2nc(N3CCC[C@@H](O)C3)ccc12 [Example 37, N-[6-Chloro-2-[(3R)-3-hydroxy-1-piperidinyl]-5-quinolinyl]-cyclohexaneacetamide] | 50.1 | 209 to 214 |  |
| O=C(NCC1CCCCC1)c1c(Cl)ccc2ncccc12 [Example 42, 6-Chloro-N-(cyclohexylmethyl)quinoline-5-carboxamide] | 316 |  |  |
| O=C(O)CN1CCN(c2ccc3c(C(=O)NCC4CCCCC4)c(Cl)ccc3n2)CC1 [Example 73, 4-[6-Chloro-5-[[(cyclohexylmethyl)amino]carbonyl]-2-quinolinyl]-1-piperazineacetic acid, Acetate] | 398 |  |  |
| O=C(CC1CCCCC1)Nc1c(Cl)ccc2nc(N3CCC(c4noc(=O)[nH]4)CC3)ccc12 [Example 102, N-[6-Chloro-2-[4-(4,5-dihydro-5-oxo-1,2,4-oxadiazol-3-yl)-1-piperidinyl]-5-quinolinyl]-cyclohexaneacetamide] | 200 | 233 to 235 |  |

More lines, now with the values ahead:

| IC50 (P2X7 receptor; [1]) [nM] | melting point [°C] | IC50 (P2X7 receptor) [nM] | Compound |
| --- | --- | --- | --- |
|  | 90 to 93 |  | O=C(NCC1CCCCC1)c1c(Cl)ccc2nc(CCCCc3nnn[nH]3)ccc12 [Example 106, 6-Chloro-N-(cyclohexylmethyl)-2-[4-(1H-tetrazol-5-yl)butyl]-5-quinolinecarboxamide] |
|  | 177 to 181 |  | O=C(CC1CCCCC1)Nc1c(Cl)ccc2nc(N3CC[C@H](OCCc4nnn[nH]4)C3)ccc12 [Example 107, N-[6-Chloro-2-[(3S)-3-[2-(1H-tetrazol-5-yl)ethoxy]-1-pyrrolidinyl]-5-quinolinyl]-cyclohexaneacetamide] |
|  | 185 to 190 |  | O=C(CC1CCCCC1)Nc1c(Cl)ccc2nc(N3CC[C@H](OCCc4noc(=O)[nH]4)C3)ccc12 [Example 108, N-[6-Chloro-2-[(3S)-3-[2-(4,5-dihydro-5-oxo-1,2,4-oxadiazol-3-yl)ethoxy]-1-pyrrolidinyl]-5-quinolinyl]-cyclohexaneacetamide] |
|  | 295 to 300 |  | O=C(CC1CCCCC1)Nc1c(Cl)ccc2nc(N3CCC(c4nnn[nH]4)CC3)ccc12 [Example 109, N-[6-Chloro-2-[4-(1H-tetrazol-5-yl)-1-piperidinyl]-5-quinolinyl]cyclohexane-acetamide] |
|  | 255 to 257 |  | O=C(NCC1CCCCC1)c1c(Cl)ccc2nc(N3CCC(c4nnn[nH]4)CC3)ccc12 [Example 110, 6-Chloro-N-(cyclohexylmethyl)-2-[4-(1H-tetrazol-5-yl)-1-piperidinyl]-5-quinolinecarboxamide] |
|  | 252 to 255 |  | O=C(NCCC1CCCCC1)c1c(Cl)ccc2nc(N3CCC(c4nnn[nH]4)CC3)ccc12 [Example 111, 6-Chloro-N-(2-cyclohexylethyl)-2-[4-(1H-tetrazol-5-yl)-1-piperidinyl]-5-quinolinecarboxamide] |
| 316 |  |  | O=C1CN([C@H]2CCN(c3ccc4c(C(=O)NCC5CCCCC5)c(Cl)ccc4n3)C2)S(=O)(=O)N1 [Example 112, 6-Chloro-N-(cyclohexylmethyl)-2-[(3S)-3-(1,1-dioxido-4-oxo-1,2,5-thiadiazolidin-2-yl)-1-pyrrolidinyl]-5-quinolinecarboxamide] |
|  | 235 to 237 |  | N#CC1CCN(c2ccc3c(NC(=O)CC4CCCCC4)c(Cl)ccc3n2)CC1 [Example 113, N-[6-Chloro-2-(4-cyan-1-piperidinyl)-5-quinolinyl]-cyclhexaneacetamide] |
|  | 187 to 189 |  | O=C(CC1CCCCC1)Nc1c(Cl)ccc2nc(N3CCC(NS(=O)(=O)C(F)(F)F)CC3)ccc12 [Example 114, N-[6-Chloro-2-[4-[[(trifluoromethyl)sulfonyl]amino]-1-piperidinyl]-5-quinolinyl]-cyclohexaneacetamide] |
